The numbers were not newly measured in patent US8163703B2, “Hepatitis C therapies” (BioCryst Pharmaceuticals, Inc., priority 2005, dated 2012), which cites them from elsewhere.

This series relates to HCV. To be noted: ribavirin alone.

On to `NC(=O)c1ncn([C@@H]2O[C@H](CO)[C@@H](O)[C@H]2O)n1` [Ribavirin, 1-β-D-ribofuranosyl-1-1,2,4-triazole-3-carboxamide], for which the “patients in whom serum amino transferase levels are reduced to normal” value was 40%.
